Source: patent US20240279232A1, “USE OF SUBSTITUTED 5-(4-METHYL-6-PHENYL-4H-BENZO[F]IMIDAZO[1,5-A][1,4] DIAZEPIN-3-YL)-1,2,4-O[…] THE TREATMENT OF INFLAMMATORY CONDITIONS” (priority 2021, published 2024)

Legend:
Mouse microglia [1] = assay: NO production (Griess assay), LPS/IFNγ-activated mouse microglia; format: cell-based; conditions: for Inhibition of NO production (%) Mouse microglia 10 μM: 24 hours, 1 μM GABA, LPS/IFNγ
[2] = system: GABAAR on immortalized mouse microglia; assay: Automated patch clamp, immortalized mouse microglia; format: cell-based; conditions: 1 mM GABA, mouse cells
[3] = system: GABAAR on immortalized human microglia; assay: Automated patch clamp, immortalized human microglia; format: cell-based; conditions: 1 mM GABA, human cells
KOR (κ opioid receptor) = molecular target: T1, KOR (κ opioid receptor) (Homo sapiens, UniProt P41145); assay: KOR radioligand binding ([3H]-U69593, HEK293 cell homogenates); conditions: [3H]-U69593
T1 construct: expressed in transfected cells; host or cells: HEK293 (stably transfected)

human KOR = molecular target: T2, human KOR (Homo sapiens, UniProt P41145); assay: BRET recruitment assay (GαoA) in HEK293T cells; format: cell-based; conditions: for KOR agonism (in words): BRET recruitment assay
T2 construct: expressed in transfected cells; host or cells: HEK293T
Protocol: HEK293 cells were transfected with GαoA-RLuc, Gβ3, Gγ8-GFP2 and human KOR and treated with increasing concentrations of GL-I-30 or full agonist salvinorin A.
The BRET recruitment assays were performed in HEK293T cells according to previously reported procedures with minor modifications. Briefly, the cells were co-transfected overnight with GαoA-RLuc, Gβ3, Gγ8-GFP2 and human KOR receptor at a 1:1:1:1 ratio. The next day, cells were seeded (˜40,000 cells/well) into poly-L-Lysine coated 96-well white clear bottom cell culture plates in DMEM containing 1% dialyzed FBS. 24 hours later, the 96-well plates bottom were covered with white backing (PerkinElmer) and the culture medium was removed. Immediately, the cells were washed with 80 μL/well of assay buffer (1× HBSS, 20 mM HEPES, 1 mg/ml BSA, pH 7.4). Then the cells were treated with 80 μL of drugs in assay buffer for 10 min at room temperature, follow by addition of 20 μL/well of RLuc substrate and incubated for another 10 min. Plates were read in a Mithras LB940 reader for the RLuc Luminescence (400 nm) and GFP2 (515 nm) emission and the ratio of GFP2/RLuc (n=24) was analyzed by non-linear regression using GraphPad Prism 8.

MOR (μ opioid receptor) = molecular target: T3, MOR (μ opioid receptor) (Homo sapiens, UniProt P35372); assay: MOR radioligand binding ([3H]-DAMGO, HEK293 cell homogenates); conditions: [3H]-DAMGO
T3 construct: expressed in transfected cells; host or cells: HEK293

DOR (δ opioid receptor) = molecular target: T4, DOR (δ opioid receptor) (Homo sapiens, UniProt P41143); assay: DOR radioligand binding ([3H]-DADLE, HEK293 cell homogenates); conditions: Percent inhibition at 10,000 nM; [3H]-DADLE
T4 construct: expressed in transfected cells; host or cells: HEK293

[4] = system: BZR (benzodiazepine site of GABAAR); assay: GABAAR/BZR binding, rat brain homogenate with 3H-flunitrazepam; conditions: rat brain homogenate, 3H-flunitrazepam
Method in brief: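 Primary screen at 10,000 nM; where displacement exceeded 50%, Ki came from nonlinear regression of concentration–response data (n=6). Radioligand was 3H-flunitrazepam at roughly Kd on rat brain homogenate, usually 90 min, room temperature, dark, with 10 μM reference compound for nonspecific binding, then filtration and scintillation counting.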

RAW macrophages [5] = assay: NO production (Griess assay), LPS/IFNγ-activated RAW264.7 macrophages; format: cell-based, mouse; conditions: for Inhibition of NO production (%) RAW macrophages 10 μM: 24 hours, 1 μM GABA, LPS/IFNγ
HEK293 = assay: Viability assay (CellTiter-Glo), HEK293; format: cell-based, human; conditions: 120 μM, CellTiter-Glo
HEPG2 = assay: Viability assay (CellTiter-Glo), HEPG2; format: cell-based, human; conditions: 120 μM, CellTiter-Glo
RAW macrophages [6] = assay: Cell viability (CellTiter-Glo), RAW macrophages; format: cell-based, mouse; conditions: CellTiter-Glo
Mouse microglia [7] = assay: Cell viability (CellTiter-Glo), mouse microglia; format: cell-based; conditions: 50 μM, CellTiter-Glo
Method in brief: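 Mouse microglia (1×10^6 cells/mL) activated with 50 ng/ml LPS plus 150 U/mL IFNγ, incubated with compounds ~24 h at 37° C. Viability of remaining cells read by CellTiter-Glo luminescence after supernatant removal for Griess NO assay; […].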

Swiss Webster mice [8] = assay: Rotarod test; conditions: 5 mg/kg
Swiss Webster mice [9] = assay: Formalin test; format: in vivo, mouse; conditions: orally; GL-IV-03 10 mg/kg; ketoprofen 30 mg/kg
Protocol: Webster mice were treated orally four days in advance with indicated compounds and doses before the injection of 2% formalin in the right hind paw. Mice were evaluated during the first 5 min (phase 1) and after 20 minutes (phase 2) for 5 minutes in 5 seconds intervals Licking and biting the right hind paw during a 5 second interval was noted and combined as total time addressing the injected paw. Data is given as mean with SEM (n =8). ** indicate p<0.01 (unpaired t-test).
The antinociceptive effect of GL-IV-03 was investigated with the formalin test. Paw injections of formalin elicited a biphasic pain response separated in time (1-5 minutes and 20-60 minutes). […] Sensorimotor impairment and sedation were investigated with mice that were trained to balance on a rotating rod over a period of three minutes (rotarod). The amount of time that mice remained balanced on the rod after intraperitoneal (i.p.) and oral (p.o.) treatment with GL-IV-03 and MP-IV-010 is summarized in FIG. 7B-7C. […] The effect was similar to non-steroidal anti-inflammatory drug ketoprofen at 30 mg/kg. Sedation and inhibition of sensorimotor coordination can influence licking and biting pain behaviors, prompting rotarod studies for GL-IV-03 and MP-IV-010. […] In contrast to diazepam, a benzodiazepine with high affinity for the α1β2/3γ2 and other GABAAR subtypes, was sedating at 5 mg/kg.
Formalin test. […]

[10] = Percent inhibition at 10,000 nM

T2 sequence (P41145 whole entry): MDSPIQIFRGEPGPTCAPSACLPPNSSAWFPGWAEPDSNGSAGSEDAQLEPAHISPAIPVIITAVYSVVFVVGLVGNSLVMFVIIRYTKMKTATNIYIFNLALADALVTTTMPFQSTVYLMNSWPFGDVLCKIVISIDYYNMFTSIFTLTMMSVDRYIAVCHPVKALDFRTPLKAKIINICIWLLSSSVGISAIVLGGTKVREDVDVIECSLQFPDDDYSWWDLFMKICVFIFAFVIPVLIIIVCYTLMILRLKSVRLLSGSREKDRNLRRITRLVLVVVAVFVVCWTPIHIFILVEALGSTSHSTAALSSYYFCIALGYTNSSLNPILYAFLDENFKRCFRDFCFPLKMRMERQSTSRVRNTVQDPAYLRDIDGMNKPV
T2 sequence (P09471 2-354 partner limits assumed): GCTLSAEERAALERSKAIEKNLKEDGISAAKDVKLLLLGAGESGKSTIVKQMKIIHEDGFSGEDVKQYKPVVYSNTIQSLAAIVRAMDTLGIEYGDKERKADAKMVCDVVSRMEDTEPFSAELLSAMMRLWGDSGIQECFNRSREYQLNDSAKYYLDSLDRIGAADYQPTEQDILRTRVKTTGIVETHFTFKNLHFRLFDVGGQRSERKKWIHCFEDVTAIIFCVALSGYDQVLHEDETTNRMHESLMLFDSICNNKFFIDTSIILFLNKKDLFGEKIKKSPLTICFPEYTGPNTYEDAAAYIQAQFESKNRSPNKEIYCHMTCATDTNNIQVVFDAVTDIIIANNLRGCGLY
T2 sequence (P16520 whole entry partner): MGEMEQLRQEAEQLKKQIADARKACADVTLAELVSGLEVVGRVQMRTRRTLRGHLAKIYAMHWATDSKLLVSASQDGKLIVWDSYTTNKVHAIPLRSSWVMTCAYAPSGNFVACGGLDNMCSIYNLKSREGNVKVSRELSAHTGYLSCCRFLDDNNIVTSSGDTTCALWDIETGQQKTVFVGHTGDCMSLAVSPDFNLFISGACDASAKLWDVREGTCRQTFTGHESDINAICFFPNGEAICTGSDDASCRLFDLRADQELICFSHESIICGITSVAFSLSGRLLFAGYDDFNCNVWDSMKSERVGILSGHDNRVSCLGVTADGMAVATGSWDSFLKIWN
T2 sequence (Q9UK08 1-67 partner limits assumed): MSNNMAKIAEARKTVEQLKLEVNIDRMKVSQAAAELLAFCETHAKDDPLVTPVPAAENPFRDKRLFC
T3 sequence (P35372 whole entry, species assumed): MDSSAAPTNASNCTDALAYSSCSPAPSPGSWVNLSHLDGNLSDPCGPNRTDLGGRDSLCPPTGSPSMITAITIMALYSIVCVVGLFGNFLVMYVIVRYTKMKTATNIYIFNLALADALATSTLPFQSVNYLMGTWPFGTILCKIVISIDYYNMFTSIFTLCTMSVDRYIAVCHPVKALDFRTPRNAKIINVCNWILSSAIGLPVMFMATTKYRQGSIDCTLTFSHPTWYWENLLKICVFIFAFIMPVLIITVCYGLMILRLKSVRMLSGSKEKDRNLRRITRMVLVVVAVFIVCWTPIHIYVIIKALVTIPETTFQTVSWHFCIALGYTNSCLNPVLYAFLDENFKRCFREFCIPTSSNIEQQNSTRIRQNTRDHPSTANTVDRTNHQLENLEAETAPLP
T1 sequence (P41145 whole entry): as the sequence (P41145 whole entry) above
T4 sequence (P41143 whole entry): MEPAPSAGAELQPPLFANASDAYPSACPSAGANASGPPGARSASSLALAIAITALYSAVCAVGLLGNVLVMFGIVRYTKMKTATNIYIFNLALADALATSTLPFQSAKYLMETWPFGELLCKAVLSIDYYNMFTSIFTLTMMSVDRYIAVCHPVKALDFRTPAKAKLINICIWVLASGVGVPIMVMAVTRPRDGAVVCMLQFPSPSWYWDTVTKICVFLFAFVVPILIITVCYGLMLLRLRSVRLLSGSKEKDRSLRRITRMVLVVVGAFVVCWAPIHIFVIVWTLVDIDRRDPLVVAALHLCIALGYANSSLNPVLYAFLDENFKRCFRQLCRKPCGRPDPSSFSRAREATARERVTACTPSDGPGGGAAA

Compound | Inhibition of NO production (%) RAW macrophages 10 μM (RAW macrophages [5]) [%] | Cell viability (%) HEK293 120 μM (HEK293) [%] | Cell viability (%) HEPG2 120 μM (HEPG2) [%] | Cell viability (%) RAW macrophages 50 μM (RAW macrophages [6]) [%] | Inhibition of NO production (%) Mouse microglia 10 μM (Mouse microglia [1]) [%] | Cell viability (%) Mouse microglia 50 μM (Mouse microglia [7]) [%] | other results
NCCCC(=O)O [GABA] |  |  |  |  |  |  | NO production of activated microglia (in words) (Mouse microglia [1]; dexamethasone 100 nM, GABA 1 μM, MP-IV-010 50 μM, GL-II-33 in the library screen): no effect; maximum current response [2]: 1514 pA; maximum current response [3]: 1245 pA
C#Cc1ccc2c(c1)C(c1ccccc1F)=NC(C)c1c(C(=O)OC(C)(C)C)ncn1-2 (stereo not drawn) [GL-I-30] |  |  |  |  |  |  | KOR % (KOR (κ opioid receptor); [10]): 95%; Ki (KOR (κ opioid receptor); concentration-dependent, read-out: KOR (Ki)): 0.027 µM; KOR agonism (in words) (human KOR): full KOR agonism; KOR agonism (in words) (human KOR; listed as GL-1-30): full KOR agonist; efficacy in comparison to full agonist salvinorin A (human KOR; BRET, HEK293T cells): 100%; EC50 (human KOR; BRET, HEK293T cells, read-out: EC50, recruitment of GαoA protein to KOR): 0.0323 µM; MOR % (MOR (μ opioid receptor); [10]): 54%; Ki (MOR (μ opioid receptor); read-out: MOR affinity Ki): 1.85 µM; DOR % (DOR (δ opioid receptor)): 7%; BZR % [4, 10]: 96%; Ki [4]: 0.177 µM
CCOC(=O)c1ncn2c1CN=C(c1ccccn1)c1cc(C3CC3)ccc1-2 [GL-IV-05] | 14 ± 3 | 47 ± 3 | 100 ± 10 | 100 ± 6 | 59 ± 4 | 88 ± 12 | 
C#Cc1ccc2c(c1)C(c1ccccc1F)=NC(C)c1c(C(=O)[O-])ncn1-2.[Na+] (stereo not drawn) [GL-IV-17] | 5 ± 5 | 67 ± 5 | 93 ± 8 | 100 ± 5 | 41 ± 5 | 89 ± 9 | 
CC1N=C(c2ccccc2F)c2cc(Br)ccc2-n2cnc(C(=O)[O-])c21.[Na+] (stereo not drawn) [GL-IV-18] | 10 ± 7 | 88 ± 5 | 80 ± 14 | 98 ± 5 | 63 ± 9 | 81 ± 10 | 
C#Cc1ccc2c(c1)C(c1ccccc1F)=N[C@H](C)c1c(-c3nc(CC)no3)ncn1-2 [MP-IV-005, (R)-3-ethyl-5-(8-ethynyl-6-(2-fluorophenyl)-4-methyl-4H-benzo[f]imidazo[1,5-a][1,4]diazepin-3-yl)-1,2,4-oxadiazole] |  | 68 ± 14 | 98 ± 8 | 86 ± 14 |  | 86 ± 13 | inhibition at 10 µM (RAW macrophages [5]; Mus musculus, Macrophage, 24 h): 5 ± 3%; inhibition at 50 µM (RAW macrophages [5]; Mus musculus, Macrophage, 24 h): 59 ± 9%; inhibition at 10 µM (Mouse microglia [1]; Mus musculus, Microglia, 24 h): 45 ± 3%; inhibition at 50 µM (Mouse microglia [1]; Mus musculus, Microglia, 24 h): 89 ± 17%
C#Cc1ccc2c(c1)C(c1ccccc1)=NCC(=O)N2C [QH-II-66] | 17 ± 6 | 81 ± 2 | 100 ± 4 | 100 ± 12 | 54 ± 9 | 97 ± 11 | 
CN1C(=O)CN=C(c2ccccc2)c2cc(Cl)ccc21 [diazepam, reference compound] |  |  |  |  |  |  | sedation (rotarod) (Swiss Webster mice [8]): sedating
CC(C(=O)O)c1cccc(C(=O)c2ccccc2)c1 (stereo not drawn) [ketoprofen, reference compound] |  |  |  |  |  |  | antinociceptive effect, formalin test (phase 1 and 2) (Swiss Webster mice [9]): similar
